# Results as given in patent US9296694B2, “Azacyclic compounds” (ACADIA Pharmaceuticals Inc., priority 2000, dated 2016).
# Where a name gives a salt, the structure may show the parent alone.
# How the values were obtained:
# Experiment in all cases: R-SAT selectivity profile of 26HCH16D
# [1] = target: T1, 5HT1A (Homo sapiens, UniProt P08908); format: cell-based; conditions: 4 doses in duplicate (3, 30, 300, 3000 nM)
# T1 construct: expressed in transfected cells; host or cells: NIH3T3, pSI vector
# T1 sequence (P08908 1-422): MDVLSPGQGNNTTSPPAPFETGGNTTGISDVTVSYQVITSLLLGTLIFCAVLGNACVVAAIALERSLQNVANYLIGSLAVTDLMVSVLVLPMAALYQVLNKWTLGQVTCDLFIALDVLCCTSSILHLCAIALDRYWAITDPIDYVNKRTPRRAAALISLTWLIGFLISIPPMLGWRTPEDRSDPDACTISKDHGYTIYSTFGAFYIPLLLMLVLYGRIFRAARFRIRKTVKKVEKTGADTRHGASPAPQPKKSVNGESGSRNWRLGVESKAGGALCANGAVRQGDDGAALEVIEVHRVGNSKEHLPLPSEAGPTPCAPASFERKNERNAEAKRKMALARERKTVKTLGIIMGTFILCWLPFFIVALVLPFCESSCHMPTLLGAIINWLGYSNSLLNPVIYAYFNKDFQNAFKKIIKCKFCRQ
# Procedure: (§1) The functional receptor assay, Receptor Selection and Amplification Technology (R-SAT), was used (with minor modifications from that previously described U.S. Pat. No. 5,707,798) to screen compounds for efficacy at the 5-HT2A receptor. Briefly, NIH3T3 cells were grown in 96 well tissue culture plates to 70-80% confluence. Cells were transfected for 12-16 hours with plasmid DNAs using superfect (Qiagen Inc.) as per manufacture's protocols. R-SAT's were generally performed with 50 ng/well of receptor and 20 ng/well of Beta-galactosidase plasmid DNA. All receptor and G-protein constructs used were in the pSI mammalian expression vector (Promega Inc) as described in U.S. Pat. No. 5,707,798. The 5HT2A receptor gene was amplified by nested PCR from brain cDNA using the oligodeoxynucleotides based on the published sequence (see Saltzman et. al. Biochem. Biophys. Res. Comm. 181:1469-78 (1991)). Large-scale transfections, cells were transfected for 12-16 hours, then trypsinized and frozen in DMSO. Frozen cells were later thawed, plated at 10,000-40,000 cells per well of a 96 well plate that contained drug. With both methods, cells were then grown in a humidified atmosphere with 5% ambient CO2 for five days. Media was then removed from the plates and marker gene activity was measured by the addition of the beta-galactosidase substrate ONPG (in PBS with 5% NP-40). The resulting colorimetric reaction was measured in a spectrophotometric plate reader (Titertek Inc.) at […]. All data were analyzed using the computer program XLFit (IDBSm). Efficacy is the percent maximal repression compared to repression by a control compound (ritanserin in the case of 5HT2A). pIC50 is the negative of the log(IC50), where IC50 is the calculated concentration in Molar that produces 50% maximal repression.
# (§2) R-SAT assays (as described in Example 42) were carried out with cells transfected with receptors (listed below) to determine the receptor selectivity profile for compound 26HCH16D. 5HT2A inverse agonist data (IC50 nM; % efficacy) were derived from detailed dose response curves (7 points in triplicate).
# [2] = target: T2, 5HT1A (Rattus norvegicus, UniProt P19327); format: cell-based; conditions: Antagonist; 4 doses in duplicate (3, 30, 300, 3000 nM)
# T2 construct: expressed in transfected cells; host or cells: NIH3T3, pSI vector
# T2 sequence (P19327 1-422): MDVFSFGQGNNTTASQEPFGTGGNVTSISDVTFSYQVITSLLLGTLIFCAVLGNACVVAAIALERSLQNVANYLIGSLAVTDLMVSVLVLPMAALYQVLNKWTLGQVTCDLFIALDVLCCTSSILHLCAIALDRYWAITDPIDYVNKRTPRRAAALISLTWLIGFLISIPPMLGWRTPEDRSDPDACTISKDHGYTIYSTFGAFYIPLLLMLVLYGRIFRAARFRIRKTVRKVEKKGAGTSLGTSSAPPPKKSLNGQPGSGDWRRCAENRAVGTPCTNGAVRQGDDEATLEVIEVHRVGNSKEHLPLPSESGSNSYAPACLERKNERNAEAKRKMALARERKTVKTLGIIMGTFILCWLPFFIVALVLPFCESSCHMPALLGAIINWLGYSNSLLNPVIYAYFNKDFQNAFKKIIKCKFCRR
# Procedure: as §1, §2
# [3] = target: T3, 5HT1E (Homo sapiens, UniProt P28566); format: cell-based; conditions: Agonist; 4 doses in duplicate (3, 30, 300, 3000 nM)
# T3 construct: expressed in transfected cells; host or cells: NIH3T3, pSI vector
# T3 sequence (P28566 whole entry): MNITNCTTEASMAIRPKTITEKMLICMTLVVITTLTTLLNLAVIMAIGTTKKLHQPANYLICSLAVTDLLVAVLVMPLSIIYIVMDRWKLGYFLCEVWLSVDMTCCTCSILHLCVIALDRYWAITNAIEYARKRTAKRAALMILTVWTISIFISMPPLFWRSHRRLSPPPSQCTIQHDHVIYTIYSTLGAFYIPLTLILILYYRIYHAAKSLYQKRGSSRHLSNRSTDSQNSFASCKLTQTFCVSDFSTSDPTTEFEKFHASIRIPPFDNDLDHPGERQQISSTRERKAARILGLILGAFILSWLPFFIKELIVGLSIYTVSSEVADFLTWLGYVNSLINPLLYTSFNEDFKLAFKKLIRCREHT
# Procedure: as §1, §2
# [4] = target: T4, alpha1a/D (Rattus norvegicus, UniProt P23944); format: cell-based; conditions: 4 doses in duplicate (3, 30, 300, 3000 nM)
# T4 construct: expressed in transfected cells; host or cells: NIH3T3, pSI vector
# T4 sequence (P23944 1-561): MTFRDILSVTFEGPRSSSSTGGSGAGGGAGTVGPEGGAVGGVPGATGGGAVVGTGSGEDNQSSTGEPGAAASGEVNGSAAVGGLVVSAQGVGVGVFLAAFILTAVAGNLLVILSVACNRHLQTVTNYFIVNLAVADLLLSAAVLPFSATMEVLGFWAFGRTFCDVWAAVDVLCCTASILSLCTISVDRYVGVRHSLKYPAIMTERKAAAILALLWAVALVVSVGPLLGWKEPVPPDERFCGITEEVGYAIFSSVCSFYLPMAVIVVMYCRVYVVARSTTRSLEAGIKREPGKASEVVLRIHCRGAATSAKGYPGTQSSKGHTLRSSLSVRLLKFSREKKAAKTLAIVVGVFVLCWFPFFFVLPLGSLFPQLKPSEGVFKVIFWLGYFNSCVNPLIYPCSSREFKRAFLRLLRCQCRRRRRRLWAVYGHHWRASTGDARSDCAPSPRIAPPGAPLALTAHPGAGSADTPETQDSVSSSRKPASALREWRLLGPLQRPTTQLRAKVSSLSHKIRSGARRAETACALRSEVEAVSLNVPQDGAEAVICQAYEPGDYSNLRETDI
# Procedure: as §1, §2
# [5] = target: T5, alpha1b/B (Mesocricetus auratus, UniProt P18841); format: cell-based, hamster; conditions: 4 doses in duplicate (3, 30, 300, 3000 nM)
# T5 construct: expressed in transfected cells; host or cells: NIH3T3, pSI vector
# T5 sequence (P18841 1-515): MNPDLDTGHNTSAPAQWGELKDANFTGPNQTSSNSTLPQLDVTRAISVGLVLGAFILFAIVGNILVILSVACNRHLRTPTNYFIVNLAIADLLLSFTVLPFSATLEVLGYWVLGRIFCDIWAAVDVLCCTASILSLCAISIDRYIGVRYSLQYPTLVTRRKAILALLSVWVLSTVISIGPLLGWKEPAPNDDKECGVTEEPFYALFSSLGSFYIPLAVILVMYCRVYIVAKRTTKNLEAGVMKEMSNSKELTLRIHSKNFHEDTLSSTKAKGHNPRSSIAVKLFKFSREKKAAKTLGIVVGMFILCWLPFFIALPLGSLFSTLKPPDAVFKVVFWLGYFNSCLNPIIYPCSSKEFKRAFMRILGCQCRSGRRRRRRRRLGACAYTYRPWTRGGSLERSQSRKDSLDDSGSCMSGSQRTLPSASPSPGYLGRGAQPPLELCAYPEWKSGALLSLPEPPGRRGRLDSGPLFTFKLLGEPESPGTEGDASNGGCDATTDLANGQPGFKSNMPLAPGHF
# Procedure: as §1, with “Frozen cells were later thawed, plated at 10,000-40,000 cells per well of a 96 well plate that contained drug. With both methods, cells were then grown in a humidified atmosphere with 5% ambient CO2 for five days.” left out, “Efficacy is the percent maximal repression compared to repression by a control compound (ritanserin in the case of 5HT2A). pIC50 is the negative of the log(IC50), where IC50 is the calculated concentration in Molar that produces 50% maximal repression.” left out
structure (smiles),measurement,setting,value
"Cc1ccc(CN(C(=O)NCc2ccccc2)C2CCN(Cc3ccccc3)CC2)cc1 [Compound 26HCH16D, N-((4-Methylphenyl)methyl)-N-(1-(phenylmethyl)piperidin-4-yl)-N′-phenylmethylcarbamide hydrochloride]",Efficacy,[1]; Agonist,"nr (nr=activity less than 30% at all doses tested (3, 30, 300, 3000 nM), therefore EC50/IC50 greater than 3000 nM))"
same,Efficacy,[1]; Antagonist,"nr (nr=activity less than 30% at all doses tested (3, 30, 300, 3000 nM), therefore EC50/IC50 greater than 3000 nM))"
same,Efficacy,[2],"nr (nr=activity less than 30% at all doses tested (3, 30, 300, 3000 nM), therefore EC50/IC50 greater than 3000 nM))"
same,Efficacy,[3],"nr (nr=activity less than 30% at all doses tested (3, 30, 300, 3000 nM), therefore EC50/IC50 greater than 3000 nM))"
same,Efficacy,[4]; Agonist,"nr (nr=activity less than 30% at all doses tested (3, 30, 300, 3000 nM), therefore EC50/IC50 greater than 3000 nM))"
same,Efficacy,[4]; Antagonist,"nr (nr=activity less than 30% at all doses tested (3, 30, 300, 3000 nM), therefore EC50/IC50 greater than 3000 nM))"
same,Efficacy,[5]; Agonist,"nr (nr=activity less than 30% at all doses tested (3, 30, 300, 3000 nM), therefore EC50/IC50 greater than 3000 nM))"
same,Efficacy,[5]; Antagonist,"nr (nr=activity less than 30% at all doses tested (3, 30, 300, 3000 nM), therefore EC50/IC50 greater than 3000 nM))"
